From ChEMBL document CHEMBL1201862, “PubChem BioAssay data set” (2004)
Active and inactive are the calls of the source.

Columns and labels:
[1] = biological target: Cytochrome P450 2C19 (Homo sapiens, UniProt P33261); assay: qHTS Assay for Inhibitors and Substrates of Cytochrome P450 2C19. [Related pubchem assays: 410 ]; type: ADME; settings: read-out: Potency
[2] = biological target: T1, Estrogen receptor beta (Homo sapiens, UniProt Q92731);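 also: recombinant ER-beta bound to coactivator SRC1 peptide in presence of estradiol agonist; inhibitors block coactivator peptide binding and lower the FRET signal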
T1 sequence (Q92731 whole entry): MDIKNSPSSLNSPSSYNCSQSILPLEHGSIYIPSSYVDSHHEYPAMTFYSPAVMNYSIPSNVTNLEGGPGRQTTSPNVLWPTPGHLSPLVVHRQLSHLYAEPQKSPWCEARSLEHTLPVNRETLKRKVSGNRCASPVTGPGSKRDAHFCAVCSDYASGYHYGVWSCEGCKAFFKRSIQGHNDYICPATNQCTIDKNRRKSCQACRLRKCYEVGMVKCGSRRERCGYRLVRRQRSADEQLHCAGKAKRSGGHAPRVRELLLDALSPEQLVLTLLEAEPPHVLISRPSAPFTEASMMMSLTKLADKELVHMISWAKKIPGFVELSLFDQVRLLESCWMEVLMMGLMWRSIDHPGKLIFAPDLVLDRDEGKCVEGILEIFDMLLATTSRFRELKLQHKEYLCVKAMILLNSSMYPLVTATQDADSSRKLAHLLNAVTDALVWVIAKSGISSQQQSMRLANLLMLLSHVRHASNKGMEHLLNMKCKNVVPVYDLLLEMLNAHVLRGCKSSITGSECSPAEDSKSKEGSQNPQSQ

[3] = biological target: T1, Estrogen receptor beta; assay: blockers of SRC-3 recruitment to ERβ – biochemical, ELISA, streptavidin-HRP readout, orthogonal assay, confirmation (AID 1060)
[4] = biological target: NADPH oxidase 1 (Homo sapiens, UniProt Q9Y5S8); type: functional, cell-based;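 also: Cell-based assay with luminescence read-out, IC50 derived from inhibitor dose-response curves; intracellular ROS from endogenous NOX1 in intact HT29 colon cancer cells; potency of inhibitors that lower the ROS luminescence signal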
Sequence of NADPH oxidase 1 (Q9Y5S8 whole entry): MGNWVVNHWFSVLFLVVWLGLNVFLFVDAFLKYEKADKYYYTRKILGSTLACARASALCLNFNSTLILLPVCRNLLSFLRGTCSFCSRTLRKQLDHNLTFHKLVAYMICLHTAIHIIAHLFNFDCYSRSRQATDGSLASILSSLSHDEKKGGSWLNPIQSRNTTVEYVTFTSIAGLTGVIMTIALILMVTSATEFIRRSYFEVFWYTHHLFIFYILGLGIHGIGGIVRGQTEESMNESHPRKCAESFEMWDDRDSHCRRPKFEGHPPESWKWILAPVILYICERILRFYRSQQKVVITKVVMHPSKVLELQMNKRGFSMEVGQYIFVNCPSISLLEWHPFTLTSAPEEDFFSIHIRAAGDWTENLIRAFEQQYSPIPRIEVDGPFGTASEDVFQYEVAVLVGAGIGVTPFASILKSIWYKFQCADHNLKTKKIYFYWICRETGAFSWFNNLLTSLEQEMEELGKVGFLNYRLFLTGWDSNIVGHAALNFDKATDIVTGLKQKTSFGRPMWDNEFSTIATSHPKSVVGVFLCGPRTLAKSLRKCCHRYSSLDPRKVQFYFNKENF

[5] = biological target: T2, CAAX prenyl protease 2 (Saccharomyces cerevisiae S288c, UniProt Q03530); type: biochemical
T2 sequence (Q03530 whole entry): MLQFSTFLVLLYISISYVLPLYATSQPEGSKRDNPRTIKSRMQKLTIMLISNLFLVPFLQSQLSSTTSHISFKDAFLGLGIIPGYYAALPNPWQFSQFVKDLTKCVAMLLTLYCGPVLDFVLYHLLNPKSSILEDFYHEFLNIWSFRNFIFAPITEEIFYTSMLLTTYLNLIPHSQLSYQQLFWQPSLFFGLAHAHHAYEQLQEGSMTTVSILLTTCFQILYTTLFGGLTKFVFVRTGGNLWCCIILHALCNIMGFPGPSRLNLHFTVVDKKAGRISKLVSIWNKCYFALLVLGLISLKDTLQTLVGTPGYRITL

[6] = biological target: T3, DNA repair protein RAD52 homolog (Homo sapiens, UniProt P43351); type: functional, biochemical
T3 sequence (P43351 whole entry): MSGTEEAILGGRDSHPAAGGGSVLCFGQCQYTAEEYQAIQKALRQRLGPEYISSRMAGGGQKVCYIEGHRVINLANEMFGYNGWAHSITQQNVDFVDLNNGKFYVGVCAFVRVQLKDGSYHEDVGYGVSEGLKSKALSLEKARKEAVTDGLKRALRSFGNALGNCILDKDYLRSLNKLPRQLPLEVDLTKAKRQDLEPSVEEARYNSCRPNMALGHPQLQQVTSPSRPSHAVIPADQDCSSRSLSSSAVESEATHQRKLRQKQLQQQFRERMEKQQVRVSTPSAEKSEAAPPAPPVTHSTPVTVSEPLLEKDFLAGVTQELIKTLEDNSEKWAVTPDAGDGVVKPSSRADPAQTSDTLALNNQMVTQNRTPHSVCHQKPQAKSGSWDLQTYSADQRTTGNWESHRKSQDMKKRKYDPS

[7] = biological target: T4, DNA repair and recombination protein RAD54-like (Homo sapiens, UniProt Q92698); assay: RAD54 Holliday junction migration blockers – biochemical, fluorescence, cherry-picked samples, dose series, confirmation (AID 651657); type: functional
T4 sequence (Q92698 whole entry): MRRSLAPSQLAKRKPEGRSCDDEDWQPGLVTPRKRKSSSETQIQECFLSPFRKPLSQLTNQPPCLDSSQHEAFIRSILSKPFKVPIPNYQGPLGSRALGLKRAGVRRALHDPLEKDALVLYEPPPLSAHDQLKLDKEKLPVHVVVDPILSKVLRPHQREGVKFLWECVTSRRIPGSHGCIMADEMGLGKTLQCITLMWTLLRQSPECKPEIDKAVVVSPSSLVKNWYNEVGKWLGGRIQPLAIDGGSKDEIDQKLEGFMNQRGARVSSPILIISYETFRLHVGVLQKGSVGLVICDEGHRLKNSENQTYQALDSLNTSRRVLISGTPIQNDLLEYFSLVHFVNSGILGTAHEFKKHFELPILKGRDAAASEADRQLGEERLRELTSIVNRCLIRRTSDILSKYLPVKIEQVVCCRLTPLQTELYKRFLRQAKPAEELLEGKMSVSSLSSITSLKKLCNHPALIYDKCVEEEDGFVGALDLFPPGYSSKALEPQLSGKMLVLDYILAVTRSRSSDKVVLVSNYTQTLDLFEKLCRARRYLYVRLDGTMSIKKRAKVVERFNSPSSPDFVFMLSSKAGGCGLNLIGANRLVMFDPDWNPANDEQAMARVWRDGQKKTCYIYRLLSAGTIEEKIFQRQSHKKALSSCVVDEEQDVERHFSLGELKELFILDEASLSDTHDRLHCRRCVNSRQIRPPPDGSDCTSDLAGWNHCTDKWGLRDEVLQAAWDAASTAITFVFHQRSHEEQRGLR

[8] = biological target: Trypsin (Sus scrofa, UniProt P00761); assay: trypsin protease activity blockade – biochemical, quenched peptide fluorescence, cherry-pick, selectivity assay for Rce1 protease inhibitor project, dose response (AID 488789)
Sequence of Trypsin (P00761 whole entry): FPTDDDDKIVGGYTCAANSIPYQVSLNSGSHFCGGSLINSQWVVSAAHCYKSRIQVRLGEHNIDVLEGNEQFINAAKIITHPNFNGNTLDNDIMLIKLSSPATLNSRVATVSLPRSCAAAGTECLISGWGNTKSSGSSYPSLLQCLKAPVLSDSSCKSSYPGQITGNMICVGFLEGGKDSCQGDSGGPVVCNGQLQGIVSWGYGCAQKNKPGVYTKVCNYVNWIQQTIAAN

[9] = test system: Vero; assay: mammalian cell viability reduction – secondary assay, cytotoxicity control for West Nile virus antiviral project, dose response (AID 1650); type: functional; settings: Chlorocebus sabaeus
[10] = test system: Vero; assay: inhibition of WNV-induced cytopathic effect – cell-based, CPE readout (AID 1621); type: functional; settings: Chlorocebus sabaeus
[11] = biological target: 5-hydroxytryptamine receptor 1A (Homo sapiens, UniProt P08908); type: functional
Sequence of 5-hydroxytryptamine receptor 1A (P08908 whole entry): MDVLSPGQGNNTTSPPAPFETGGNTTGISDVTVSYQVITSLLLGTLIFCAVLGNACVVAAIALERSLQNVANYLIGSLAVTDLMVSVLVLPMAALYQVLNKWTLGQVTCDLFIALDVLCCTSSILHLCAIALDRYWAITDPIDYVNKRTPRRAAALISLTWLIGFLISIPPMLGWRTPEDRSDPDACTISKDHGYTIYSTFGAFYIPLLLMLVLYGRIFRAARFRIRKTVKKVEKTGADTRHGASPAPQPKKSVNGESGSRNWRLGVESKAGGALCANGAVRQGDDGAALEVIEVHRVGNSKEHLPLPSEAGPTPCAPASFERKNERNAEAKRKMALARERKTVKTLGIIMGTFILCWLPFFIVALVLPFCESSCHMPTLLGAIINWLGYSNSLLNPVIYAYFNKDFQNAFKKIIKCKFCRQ

[12] = biological target: Bcl-2-like protein 10 (Homo sapiens, UniProt Q9HD36); assay: Concentration-response of Bcl-B inhibitors by biochemical FP with TR3 (AID 1243); type: functional
Sequence of Bcl-2-like protein 10 (Q9HD36 whole entry): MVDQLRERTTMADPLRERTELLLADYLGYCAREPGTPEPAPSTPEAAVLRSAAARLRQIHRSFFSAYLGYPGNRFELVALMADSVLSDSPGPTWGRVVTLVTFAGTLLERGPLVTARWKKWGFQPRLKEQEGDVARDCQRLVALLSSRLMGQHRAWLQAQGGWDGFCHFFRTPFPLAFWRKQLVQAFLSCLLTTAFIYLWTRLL

[13] = biological target: Peroxisome proliferator-activated receptor gamma/Nuclear receptor coactivator 1 (Homo sapiens, UniProt P37231); assay: (§1) TR-FRET dose response biochemical High Throughput Screening assay for agonists of the steroid receptor coactivator 1 (SRC-1) recruitment by the peroxisome proliferator-activated receptor gamma (PPAR gamma): non-selective agonists. [Related pubchem assays (depositor defined):AID1300, AID1808, AID504735, AID631]; type: protein assay
[14] = biological target: Mothers against decapentaplegic homolog 3 (Homo sapiens, UniProt P84022); assay: inhibitors of SMAD-driven TGF-beta signaling – dose response (AID 715); type: functional
Sequence of Mothers against decapentaplegic homolog 3 (P84022 whole entry): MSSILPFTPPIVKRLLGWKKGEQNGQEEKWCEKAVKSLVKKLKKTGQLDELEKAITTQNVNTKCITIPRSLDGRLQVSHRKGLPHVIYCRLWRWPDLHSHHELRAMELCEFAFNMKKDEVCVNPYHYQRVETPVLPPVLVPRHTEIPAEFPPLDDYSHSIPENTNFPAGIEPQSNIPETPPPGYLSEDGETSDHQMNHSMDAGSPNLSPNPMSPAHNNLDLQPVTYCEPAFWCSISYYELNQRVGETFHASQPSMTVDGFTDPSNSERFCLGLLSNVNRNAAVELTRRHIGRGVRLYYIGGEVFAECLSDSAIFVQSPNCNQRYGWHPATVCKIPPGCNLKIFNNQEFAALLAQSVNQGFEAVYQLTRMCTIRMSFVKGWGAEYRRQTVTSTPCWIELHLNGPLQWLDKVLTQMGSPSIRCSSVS

[15] = biological target: Peroxisome proliferator-activated receptor gamma/Nuclear receptor coactivator 3 (Homo sapiens, UniProt P37231); assay: as §1, with “3 (SRC-3)” for “1 (SRC-1)”, “assays: 1301 (Confirmation screen.), 1048 (Primary screen.)]” for “assays (depositor defined):AID1300, AID1808, AID504735, AID631]”; type: functional
[16] = biological target: Peroxisome proliferator-activated receptor gamma/Nuclear receptor coactivator 2 (Homo sapiens, UniProt P37231); assay: TR-FRET dose response biochemical High Throughput Screening assay for agonists of the steroid receptor coactivator 2 (SRC-2) recruitment by the peroxisome proliferator-activated receptor gamma (PPAR gamma): non-selective agonists. [Related pubchem assays: 1297, 1032 ]; type: functional
[17] = biological target: Aryl hydrocarbon receptor (Homo sapiens, UniProt P35869); assay: Luminescence-based cell-based high throughput dose response assay for activators of the Aryl Hydrocarbon Receptor (AHR). [Related pubchem assays: 2796 (Primary screen (AHR activators in singlicate)), 2845 (Confirmation screen (AHR activators in triplicate)), 434939 (Counterscreen (PXR activators in triplicate)), 2804 (Summary (AHR activators))]; type: ADME
[18] = biological target: Sphingosine 1-phosphate receptor 2 (Homo sapiens, UniProt O95136); assay: Dose Response Cell Based Assay for Agonists of the S1P2 Receptor of Purchased Analogues. [Related pubchem assays: 729, 843, 854, 736 ]; type: functional
Sequence of Sphingosine 1-phosphate receptor 2 (O95136 whole entry): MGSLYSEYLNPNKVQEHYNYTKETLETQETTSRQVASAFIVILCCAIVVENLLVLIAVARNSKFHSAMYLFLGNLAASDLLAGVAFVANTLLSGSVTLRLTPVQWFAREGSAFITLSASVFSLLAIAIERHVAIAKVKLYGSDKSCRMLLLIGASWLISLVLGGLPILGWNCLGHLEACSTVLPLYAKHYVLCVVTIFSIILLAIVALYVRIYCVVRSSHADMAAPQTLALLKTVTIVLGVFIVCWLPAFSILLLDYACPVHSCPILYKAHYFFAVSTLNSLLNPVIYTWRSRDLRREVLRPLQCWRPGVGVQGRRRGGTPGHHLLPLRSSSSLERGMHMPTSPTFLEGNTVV

[19] = biological target: T5, Streptokinase A (Streptococcus pyogenes serotype M1, UniProt P10520); assay: viability-normalized secreted streptokinase activity reduction – plasminogen activation absorbance, OD405, dose response (AID 1914); type: functional, Streptococcus pyogenes M1 GAS;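 also: secreted streptokinase activity via plasminogen activation per viability signal from cell pellet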
T5 sequence (P10520 whole entry): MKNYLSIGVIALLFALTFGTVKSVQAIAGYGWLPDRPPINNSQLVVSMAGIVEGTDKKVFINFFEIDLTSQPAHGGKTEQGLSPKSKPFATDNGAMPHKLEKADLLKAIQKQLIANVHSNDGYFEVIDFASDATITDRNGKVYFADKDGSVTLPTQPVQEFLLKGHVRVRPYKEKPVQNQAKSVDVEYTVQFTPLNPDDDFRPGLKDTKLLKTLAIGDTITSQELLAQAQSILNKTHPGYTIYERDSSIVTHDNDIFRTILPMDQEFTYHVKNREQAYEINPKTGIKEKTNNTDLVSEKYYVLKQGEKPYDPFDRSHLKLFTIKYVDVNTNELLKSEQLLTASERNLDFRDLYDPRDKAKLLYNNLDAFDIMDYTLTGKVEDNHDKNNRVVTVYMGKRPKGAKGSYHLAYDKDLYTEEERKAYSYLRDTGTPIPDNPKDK

[20] = biological target: Peroxisome proliferator-activated receptor gamma/Nuclear receptor corepressor 2 (Homo sapiens, UniProt P37231+Q9Y618); assay: Counterscreen for NR2E3 inverse agonists: TR-FRET-based biochemical high throughput dose response assay to identify inverse agonists of the interaction between peroxisome proliferator-activated receptor gamma (PPARg) and nuclear receptor co-repressor 2 (NCOR2).; type: functional
[21] = test system: Streptococcus; assay: GAS UMAA2166 growth inhibition – luminescence, BacTiterGlo, counter-screen for streptokinase expression inhibitor project, dose response (AID 1915); type: functional, organism-based;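 also: potency for reduction of bacterial viability or growth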
[22] = biological target: Photoreceptor-specific nuclear receptor (Homo sapiens, UniProt Q9Y5X4); assay: ligands suppressing NR2E3 nuclear receptor activity – biochemical, TR-FRET, dose response (AID 463256); type: functional
Sequence of Photoreceptor-specific nuclear receptor (Q9Y5X4 whole entry): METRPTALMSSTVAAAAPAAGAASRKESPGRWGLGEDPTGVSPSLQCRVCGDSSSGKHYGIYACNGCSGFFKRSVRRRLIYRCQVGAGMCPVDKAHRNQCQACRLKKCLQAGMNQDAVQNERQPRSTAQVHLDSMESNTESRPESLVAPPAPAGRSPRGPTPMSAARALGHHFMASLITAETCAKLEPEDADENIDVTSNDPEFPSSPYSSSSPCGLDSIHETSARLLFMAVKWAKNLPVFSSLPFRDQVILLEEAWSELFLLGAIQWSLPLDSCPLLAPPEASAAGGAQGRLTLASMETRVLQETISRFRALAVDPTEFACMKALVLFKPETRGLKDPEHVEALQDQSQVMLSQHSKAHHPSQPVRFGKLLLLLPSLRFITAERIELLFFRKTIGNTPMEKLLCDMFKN

[23] = test system: Streptococcus sp. 'group A'; assay: Streptococcus pyogenes SK(-)GAS viability under kanamycin – luminescence, BacTiterGlo, confirmation, counter-screen for streptokinase expression inhibitor project, dose response (AID 1900); type: functional, organism-based
[24] = mitochondrial function rescue without frataxin homolog – Friedreich's ataxia, plus single-dose screen, dose response (AID 1465); type: functional;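 also: yeast depleted of Yfh1p frataxin homolog grown on glycerol needing respiration; WST-1 tetrazolium dye reduction as measure of cellular dehydrogenase metabolic activity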
[25] = biological target: T6, SUMO-activating enzyme (Homo sapiens, UniProt Q9UBT2); assay: blockers of SAE1/SAE2–UBC9 SUMO transfer – biochemical, HTRF, uHTS, primary screen (AID 2006); type: protein-complex assay
T6 sequence (Q9UBE0 whole entry, the tested form may be a part): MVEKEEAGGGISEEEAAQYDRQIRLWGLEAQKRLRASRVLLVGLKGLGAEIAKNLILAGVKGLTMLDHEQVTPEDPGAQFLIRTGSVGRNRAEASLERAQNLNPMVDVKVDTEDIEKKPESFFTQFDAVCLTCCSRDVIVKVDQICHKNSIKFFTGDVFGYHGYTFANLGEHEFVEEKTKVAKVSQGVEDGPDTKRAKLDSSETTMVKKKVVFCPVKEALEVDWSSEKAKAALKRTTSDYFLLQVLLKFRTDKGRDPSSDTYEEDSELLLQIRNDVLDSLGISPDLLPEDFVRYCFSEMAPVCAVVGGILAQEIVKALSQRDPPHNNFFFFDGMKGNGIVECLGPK
T6 sequence (Q9UBT2 whole entry, the tested form may be a part): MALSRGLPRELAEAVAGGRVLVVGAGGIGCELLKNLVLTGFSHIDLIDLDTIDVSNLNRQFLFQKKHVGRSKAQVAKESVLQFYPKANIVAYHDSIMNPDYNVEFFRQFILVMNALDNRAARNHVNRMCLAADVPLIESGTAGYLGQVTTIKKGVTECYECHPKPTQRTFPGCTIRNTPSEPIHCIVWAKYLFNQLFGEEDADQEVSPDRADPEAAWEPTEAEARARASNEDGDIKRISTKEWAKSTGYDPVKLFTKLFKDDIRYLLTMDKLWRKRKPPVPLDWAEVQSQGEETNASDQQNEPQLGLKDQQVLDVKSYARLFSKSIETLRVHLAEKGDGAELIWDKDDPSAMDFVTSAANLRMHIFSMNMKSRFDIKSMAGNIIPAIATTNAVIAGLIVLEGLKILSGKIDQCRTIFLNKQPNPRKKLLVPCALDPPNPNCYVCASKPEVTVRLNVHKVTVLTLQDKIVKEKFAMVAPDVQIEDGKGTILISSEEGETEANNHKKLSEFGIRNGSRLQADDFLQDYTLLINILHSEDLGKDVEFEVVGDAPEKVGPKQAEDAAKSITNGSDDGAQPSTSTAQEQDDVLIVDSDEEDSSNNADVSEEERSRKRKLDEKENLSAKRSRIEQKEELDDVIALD

[26] = biological target: T7, RNA-binding protein pos-1 (Caenorhabditis elegans, UniProt G5EF15); assay: disruptors of C. elegans POS-1 RNA interaction – biochemical, fluorescence polarization, dose response (AID 1964);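 also: purified POS-1 fused to maltose binding protein made in E. coli; potency of compounds blocking POS-1 binding to fluorescent RNA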
T7 sequence (G5EF15 whole entry): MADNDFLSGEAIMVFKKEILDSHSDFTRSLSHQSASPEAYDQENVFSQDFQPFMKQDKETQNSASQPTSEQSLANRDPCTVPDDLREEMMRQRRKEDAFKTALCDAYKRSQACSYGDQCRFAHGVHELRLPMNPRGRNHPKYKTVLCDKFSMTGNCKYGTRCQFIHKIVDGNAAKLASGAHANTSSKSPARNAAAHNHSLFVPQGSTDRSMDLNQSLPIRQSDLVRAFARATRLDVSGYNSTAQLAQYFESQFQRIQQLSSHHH

[27] = biological target: T8, Zinc finger protein mex-5 (Caenorhabditis elegans, UniProt Q9XUB2); assay: potency of MEX-5 RNA-binding blockers – biochemical, C. elegans, fluorescence polarization, dose response (AID 1960)
T8 sequence (Q9XUB2 whole entry): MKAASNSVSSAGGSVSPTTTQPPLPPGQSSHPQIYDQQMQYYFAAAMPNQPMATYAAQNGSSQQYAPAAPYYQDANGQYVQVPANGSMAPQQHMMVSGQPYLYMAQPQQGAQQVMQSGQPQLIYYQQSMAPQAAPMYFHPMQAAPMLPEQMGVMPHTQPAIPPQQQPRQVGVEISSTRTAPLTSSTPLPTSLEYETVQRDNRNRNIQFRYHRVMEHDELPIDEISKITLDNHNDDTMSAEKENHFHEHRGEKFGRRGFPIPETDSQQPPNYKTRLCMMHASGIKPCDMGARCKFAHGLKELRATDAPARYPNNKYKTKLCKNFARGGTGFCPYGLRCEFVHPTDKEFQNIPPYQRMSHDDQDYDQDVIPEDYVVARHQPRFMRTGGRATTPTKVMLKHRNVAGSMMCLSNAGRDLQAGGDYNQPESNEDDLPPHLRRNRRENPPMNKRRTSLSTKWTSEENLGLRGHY

[28] = biological target: T6, SUMO-activating enzyme; assay: blockers of UBC9-mediated SUMO conjugation – biochemical, AlphaScreen, SUMOylation inhibitor project, confirmation (AID 2018); type: functional

Sequence of Cytochrome P450 2C19 (P33261 whole entry): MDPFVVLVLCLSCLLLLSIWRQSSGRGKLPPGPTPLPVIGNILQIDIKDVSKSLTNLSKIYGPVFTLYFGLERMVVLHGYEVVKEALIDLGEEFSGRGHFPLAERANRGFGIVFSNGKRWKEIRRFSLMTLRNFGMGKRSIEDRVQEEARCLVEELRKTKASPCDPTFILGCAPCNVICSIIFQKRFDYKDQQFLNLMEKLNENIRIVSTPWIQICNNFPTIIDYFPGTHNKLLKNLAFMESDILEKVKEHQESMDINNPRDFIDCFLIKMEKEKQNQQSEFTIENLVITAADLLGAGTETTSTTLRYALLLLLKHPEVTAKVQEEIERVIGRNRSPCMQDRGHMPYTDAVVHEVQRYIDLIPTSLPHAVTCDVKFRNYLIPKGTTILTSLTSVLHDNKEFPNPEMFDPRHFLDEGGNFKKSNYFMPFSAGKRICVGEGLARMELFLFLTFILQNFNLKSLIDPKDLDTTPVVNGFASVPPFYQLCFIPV

## CC(C)C[C@H](NC(=O)[C@@H](NC(=O)N[C@@H](Cc1ccccc1)C(=O)O)[C@H]1CCN=C(N)N1)C(=O)N[C@H](C=O)Cc1ccccc1
[1]
  AC50: 10 µM (inconclusive)

## O=C(c1cc2ncc(Br)cn2n1)N1CCOCC1
[2]
  IC50: 9.16 µM (active)
[3]
  IC50: 23 µM (not active)

## C=C(NNc1c(Cl)c(Cl)nc(C(=O)O)c1Cl)c1ccc2c(c1)OCCO2
[4]
  IC50: > 17 µM (not active)

## CCN(CC)CCCNC(=O)c1cc2c(-c3cccc(OC)c3)nn(C)c2s1
[5]
  AC50: 77.8 µM (active)
[6]
  AC50: 6.07 µM (active)
[7]
  AC50: 34.1 µM (active)
[8]
  AC50: 9.95 µM (active)
[9]
  CC50: > 100 µM (active)
[10]
  IC50: 19.9 µM (active)

## Cc1c(CN2CCN(c3cccc(C(F)(F)F)c3)CC2)c(=O)n(-c2ccccc2)n1C
[11]
  EC50: > 50 µM (not active)

## Nc1ccc(Oc2ccc(N)c(N)c2)cc1N
[12]
  EC50: 5.37 µM (active)

## CCN1CCCC1CNC(=O)CSc1cc(=O)n(C)c2cc(Cl)ccc12 (stereo not drawn)
[13]
  EC50: > 79.4 µM (inactive)
[14]
  IC50: 8.7 µM (active)
[15]
  EC50: > 79.4 µM (not active)
[16]
  EC50: > 79.4 µM (not active)

## Cc1nc(C)c(C(=O)N/N=C/c2c[nH]c3ccccc23)s1
[17]
  EC50: > 91.7 µM (not active)

## Cc1cc(C(=O)CN2C(=O)C(=O)N(C3CCCC3)C2=O)c(C)n1Cc1ccccc1
[18]
  EC50: > 30 µM (not active)

## O=C(COc1ccc(Cl)cc1Cl)Nc1ccc(-c2ccc(N3CCOCC3)nn2)cc1
[19]
  EC50: > 150 µM (not active)
[20]
  IC50: 1.51 µM (active)
[21]
  EC50: > 150 µM (not active)
[22]
  IC50: 1.43 µM (active)
[23]
  EC50: > 150 µM (not active)

## COc1cc([N+](=O)[O-])cc(/C=N/NC(=O)CC#N)c1O
[24]
  EC50: > 100 µM (active)
[25]
  IC50: 8.76 µM (active)
[26]
  EC50: > 300 µM (inconclusive)
[27]
  EC50: > 300 µM (inconclusive)
[28]
  IC50: 1.15 µM (active)
